Values of other authors in article PMC11686138 (Nature Communications, 2024).

Target: CLDN4
Conditions: reported KD

NSSYSGNYYSIL [Cpe30 MT2]
Kd: 1.97 nM
